Biological target: MAGL (Mus musculus (Mouse), UniProt O35678)
Test: In vitro competitive activity-based protein profiling, mouse brain proteome
Type: biochemical
Settings: for IC50: mouse brain

Chain of MAGL (O35678 whole entry): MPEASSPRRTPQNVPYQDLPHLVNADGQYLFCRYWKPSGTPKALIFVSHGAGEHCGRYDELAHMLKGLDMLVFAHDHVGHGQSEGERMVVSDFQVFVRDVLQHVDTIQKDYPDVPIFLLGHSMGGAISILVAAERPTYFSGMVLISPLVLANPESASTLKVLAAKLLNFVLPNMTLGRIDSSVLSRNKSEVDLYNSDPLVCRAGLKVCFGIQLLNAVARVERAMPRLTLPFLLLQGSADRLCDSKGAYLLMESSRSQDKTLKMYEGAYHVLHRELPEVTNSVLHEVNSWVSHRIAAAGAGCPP

| SMILES | inhibition at 1 µM (1 uM, mouse) | IC50 | MAGL % Inhibition at 1 uM (Mouse) (1 uM, mouse) |
| --- | --- | --- | --- |
| O=C(OC(C(F)(F)F)C(F)(F)F)N1CCC2(CCCN2C(=O)c2sc3ccccc3c2Cl)CC1 [Example 97, 1,1,1,3,3,3-Hexafluoropropan-2-yl 1-(3-chlorobenzo[b]thiophene-2-carbonyl)-1,8-diazaspiro[4.5] decane-8-carboxylate] | > 75% |  |  |
| O=C(OC(C(F)(F)F)C(F)(F)F)N1CCC2(CCCN2Cc2cc3c(Cl)cccc3s2)CC1 [Example 44, 1,1,1,3,3,3-Hexafluoropropan-2-yl 1-((4-chlorobenzo[b]thiophen-2-yl)methyl)-1,8-diazaspiro[4.5] decane-8-carboxylate] | > 75% | 100 to 1000 nM |  |
| CC(C)n1cc(CN2CCCC23CCN(C(=O)OC(C(F)(F)F)C(F)(F)F)CC3)c(-c2cccc(N3CCCC3)c2)n1 [Example 8, 1,1,1,3,3,3-Hexafluoropropan-2-yl 1-((1-isopropyl-3-(3-(pyrrolidin-1-yl)phenyl)-1H-pyrazol-4-yl)methyl)-1,8-diazaspiro[4.5]decane-8-carboxylate] |  | 100 to 1000 nM | ### (% inhibition is greater than or equal to 75%) |
| Cc1ccc2cc(C(=O)N3CCCC34CCN(C(=O)OC(C(F)(F)F)C(F)(F)F)CC4)sc2c1 [Example 59, 1,1,1,3,3,3-Hexafluoropropan-2-yl 1-(6-methylbenzo[b]thiophene-2-carbonyl)-1,8-diazaspiro[4.5] decane-8-carboxylate] | > 75% |  |  |
| O=C(OC(C(F)(F)F)C(F)(F)F)N1CCC2(CCN(Cc3cccnc3)C2)CC1 [Example 64, 1,1,1,3,3,3-Hexafluoropropan-2-yl 2-(pyridin-3-ylmethyl)-2,8-diazaspiro[4.5] decane-8-carboxylate] | > 75% | 100 to 1000 nM |  |
| CC(C)n1cc(CN2CCCC23CCN(C(=O)OC(C(F)(F)F)C(F)(F)F)CC3)c(-c2cc(Cl)cc(Cl)c2)n1 [Example 220, 1,1,1,3,3,3-Hexafluoropropan-2-yl 1-((3-(3,5-dichlorophenyl)-1-isopropyl-1H-pyrazol-4-yl)methyl)-1,8-diazaspiro[4.5]decane-8-carboxylate] | > 75% |  |  |
| O=C(OC(C(F)(F)F)C(F)(F)F)N1CCC2(CCN(Cc3ccccn3)C2)CC1 [Example 73, 1,1,1,3,3,3-Hexafluoropropan-2-yl 2-(pyridin-2-ylmethyl)-2,8-diazaspiro [4.5]decane-8-carboxylate] | > 75% | 100 to 1000 nM |  |
| O=C(OC(C(F)(F)F)C(F)(F)F)N1CCC2(CCCN2C(=O)c2cc3ccc(F)cc3s2)CC1 [Example 103, 1,1,1,3,3,3-Hexafluoropropan-2-yl 1-(6-fluorobenzo[b]thiophene-2-carbonyl)-1,8-diazaspiro[4.5] decane-8-carboxylate] | > 75% |  |  |
| Cc1c(CN(C)C2(C)CCN(C(=O)OC(C(F)(F)F)C(F)(F)F)CC2)sc2ccccc12 [Example 50, 1,1,1,3,3,3-Hexafluoropropan-2-yl 4-methyl-4-(methyl((3-methylbenzo[b]thiophen-2-yl)methyl)amino) piperidine-1-carboxylate] | > 75% | 100 to 1000 nM |  |
| O=C(OC(C(F)(F)F)C(F)(F)F)N1CCC2(CCN(Cc3cncnc3)C2)CC1 [Example 67, 1,1,1,3,3,3-Hexafluoropropan-2-yl 2-(pyrimidin-5-ylmethyl)-2,8-diazaspiro[4.5] decane-8-carboxylate] | > 75% | 100 to 1000 nM |  |
| O=C(OC(C(F)(F)F)C(F)(F)F)N1CCC2(CCCN2Cc2cncs2)CC1 [Example 225, 1,1,1,3,3,3-Hexafluoropropan-2-yl 1-(thiazol-5-ylmethyl)-1,8-diazaspiro [4.5]decane-8-carboxylate] | > 75% |  |  |
| Cn1cc(C(=O)N2CCCC23CCN(C(=O)OC(C(F)(F)F)C(F)(F)F)CC3)cn1 [Example 70, 1,1,1,3,3,3-Hexafluoropropan-2-yl 1-(1-methyl-1H-pyrazole-4-carbonyl)-1,8-diazaspiro[4.5] decane-8-carboxylate] | > 75% | 100 to 1000 nM |  |
| COc1cccc2cc(CN3CCCC34CCN(C(=O)OC(C(F)(F)F)C(F)(F)F)CC4)[nH]c12 [Example 53, 1,1,1,3,3,3-Hexafluoropropan-2-yl 1-((7-methoxy-1H-indol-2-yl)methyl)-1,8-diazaspiro[4.5] decane-8-carboxylate] | > 75% |  |  |
| O=C(OC(C(F)(F)F)C(F)(F)F)N1CCC2(CCCN2C(=O)c2cc3cc(Cl)ccc3s2)CC1 [Example 95, 1,1,1,3,3,3-Hexafluoropropan-2-yl 1-(5-chlorobenzo[b]thiophene-2-carbonyl)-1,8-diazaspiro[4.5] decane-8-carboxylate] | > 75% | < 100 nM |  |
| O=C(OC(C(F)(F)F)C(F)(F)F)N1CCC2(CCCN2C(=O)c2cc3cc(F)ccc3s2)CC1 [Example 99, 1,1,1,3,3,3-Hexafluoropropan-2-yl 1-(5-fluorobenzo[b]thiophene-2-carbonyl)-1,8-diazaspiro[4.5] decane-8-carboxylate] | > 75% | < 100 nM |  |
| O=C(OC(C(F)(F)F)C(F)(F)F)N1CCC2(CCCN2C(=O)c2cnn(-c3ccc(Cl)cc3)c2)CC1 [Example 78, 1,1,1,3,3,3-Hexafluoropropan-2-yl 1-(1-(4-chlorophenyl)-1H-pyrazole-4-carbonyl)-1,8-diazaspiro[4.5] decane-8-carboxylate] | > 75% | < 100 nM |  |
| O=C(OC(C(F)(F)F)C(F)(F)F)N1CCC2(CCCN2C(=O)c2nc3ccccc3o2)CC1 [Example 84, 1,1,1,3,3,3-Hexafluoropropan-2-yl 1-(benzo[d]oxazole-2-carbonyl)-1,8-diazaspiro[4.5] decane-8-carboxylate] | > 75% | < 100 nM |  |
| O=C(O)c1ccc2[nH]c(CN3CCCC34CCN(C(=O)OC(C(F)(F)F)C(F)(F)F)CC4)cc2c1 [Example 15, 2-((8-(((1,1,1,3,3,3-Hexafluoropropan-2-yl)oxy)carbonyl)-1,8-diazaspiro[4.5]decan-1-yl)methyl)-1H-indole-5-carboxylic acid] | 25 to 75% |  |  |

Further lines, with some results ahead:

| inhibition at 1 µM (1 uM, mouse) | IC50 | SMILES | MAGL % Inhibition at 1 uM (Mouse) (1 uM, mouse) |
| --- | --- | --- | --- |
| > 75% | < 100 nM | O=C(OC(C(F)(F)F)C(F)(F)F)N1CCC2(CCCN2C(=O)c2cc3cc(Cl)c(Cl)cc3[nH]2)CC1 [Example 111, 1,1,1,3,3,3-Hexafluoropropan-2-yl 1-(5,6-dichloro-1H-indole-2-carbonyl)-1,8-diazaspiro[4.5] decane-8-carboxylate] |  |
| > 75% | < 100 nM | O=C(OC(C(F)(F)F)C(F)(F)F)N1CCC2(CCCN2C(=O)c2ccn(-c3ccccc3)n2)CC1 [Example 82, 1,1,1,3,3,3-Hexafluoropropan-2-yl 1-(1-phenyl-1H-pyrazole-3-carbonyl)-1,8-diazaspiro[4.5] decane-8-carboxylate] |  |
| > 75% | < 100 nM | O=C(OC(C(F)(F)F)C(F)(F)F)N1CCC2(CCCN2C(=O)c2cc3cc(F)ccc3[nH]2)CC1 [Example 107, 1,1,1,3,3,3-Hexafluoropropan-2-yl 1-(5-fluoro-1H-indole-2-carbonyl)-1,8-diazaspiro[4.5] decane-8-carboxylate] |  |
| > 75% | < 100 nM | O=C(OC(C(F)(F)F)C(F)(F)F)N1CCC2(CCCN2C(=O)c2cc3ccccc3o2)CC1 [Example 83, 1,1,1,3,3,3-Hexafluoropropan-2-yl 1-(benzofuran-2-carbonyl)-1,8-diazaspiro[4.5] decane-8-carboxylate] |  |
| > 75% | < 100 nM | O=C(OC(C(F)(F)F)C(F)(F)F)N1CCC2(CCCN2Cc2ccc3cc(Cl)ccc3n2)CC1 [Example 55, 1,1,1,3,3.3-Hexafluoropropan-2-yl 1-((6-chloroquinolin-2-yl)methyl)-1,8-diazaspiro[4.5] decane-8-carboxylate] |  |
| > 75% | < 100 nM | O=C(OC(C(F)(F)F)C(F)(F)F)N1CCC2(CCCN2Cc2cc(-c3ccc(Cl)cc3)on2)CC1 [Example 47, 1,1,1,3,3,3-Hexafluoropropan-2-yl 1-((5-(4-chlorophenyl)isoxazol-3-yl)methyl)-1,8-diazaspiro[4.5] decane-8-carboxylate] |  |
| > 75% | < 100 nM | Cc1ccc2[nH]c(C(=O)N3CCCC34CCN(C(=O)OC(C(F)(F)F)C(F)(F)F)CC4)cc2c1 [Example 14, 1,1,1,3,3,3-Hexafluoropropan-2-yl 1-(5-methyl-1H-indole-2-carbonyl)-1,8-diazaspiro[4.5]decane-8-carboxylate] |  |
| > 75% | < 100 nM | O=C(OC(C(F)(F)F)C(F)(F)F)N1CCC2(CCCN2C(=O)c2ccc3[nH]ccc3c2)CC1 [Example 89, 1,1,1,3,3,3-Hexafluoropropan-2-yl 1-(1H-indole-5-carbonyl)-1,8-diazaspiro[4.5] decane-8-carboxylate] |  |
| > 75% | < 100 nM | CC(C)n1ccc(C(=O)N2CCCC23CCN(C(=O)OC(C(F)(F)F)C(F)(F)F)CC3)n1 [Example 81, 1,1,1,3,3,3-Hexafluoropropan-2-yl 1-(1-isopropyl-1H-pyrazole-3-carbonyl)-1,8-diazaspiro[4.5] decane-8-carboxylate] |  |
| > 75% | < 100 nM | O=C(OC(C(F)(F)F)C(F)(F)F)N1CCC2(CCCN2C(=O)c2ccc3sccc3c2)CC1 [Example 90, 1,1,1,3,3,3-Hexafluoropropan-2-yl 1-(benzo[b]thiophene-5-carbonyl)-1,8-diazaspiro[4.5] decane-8-carboxylate] |  |
| > 75% | < 100 nM | O=C(OC(C(F)(F)F)C(F)(F)F)N1CCC2(CCCN2C(=O)c2cc3cccc(C(F)(F)F)c3s2)CC1 [Example 98, 1,1,1,3,3,3-Hexafluoropropan-2-yl 1-(7-(trifluoromethyl)benzo[b]thiophene-2-carbonyl)-1,8-diazaspiro[4.5] decane-8-carboxylate] |  |
| > 75% | < 100 nM | CC(C)(C)c1cc(CN2CCC3(CCN(C(=O)OC(C(F)(F)F)C(F)(F)F)CC3)C2)n(-c2ccccc2Cl)n1 [Example 217, 1,1,1,3,3,3-Hexafluoropropan-2-yl 2-((3-(t-butyl)-1-(2-chlorophenyl)-1H-pyrazol-5-yl)methyl)-2,8-diazaspiro[4.5]decane-8-carboxylate] |  |
